Source: US10793547B2, “Modulator of the cystic fibrosis transmembrane conductance regulator, pharmaceutical compositions, methods of treatment, and process for making the modulator” (Vertex Pharmaceuticals Incorporated, priority 2016, dated 2020)
pEC50: −log10 of the molar value.

Assays:
human PXR = molecular target: T1, human PXR (Homo sapiens, UniProt O75469); assay: PXR assay: PXR mediated CYP3A4 induction in DPX-2 cell line; assay type: cell-based; details: DPX-2 cells
T1 construct: host or cells: DPX-2 cell line (derived from HepG2)
T1 sequence (O75469 1-434): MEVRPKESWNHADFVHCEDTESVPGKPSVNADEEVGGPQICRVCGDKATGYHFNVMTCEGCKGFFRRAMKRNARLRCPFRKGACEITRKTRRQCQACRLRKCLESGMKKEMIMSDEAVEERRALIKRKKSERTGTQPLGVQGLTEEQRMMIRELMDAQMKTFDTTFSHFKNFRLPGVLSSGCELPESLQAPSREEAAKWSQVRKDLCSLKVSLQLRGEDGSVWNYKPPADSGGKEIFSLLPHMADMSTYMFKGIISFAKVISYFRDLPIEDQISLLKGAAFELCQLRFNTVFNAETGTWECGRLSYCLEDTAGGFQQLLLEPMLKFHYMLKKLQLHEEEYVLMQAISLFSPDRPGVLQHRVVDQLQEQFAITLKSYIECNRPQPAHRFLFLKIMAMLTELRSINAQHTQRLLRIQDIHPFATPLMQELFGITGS
Description: D. Experimental Protocol for PXR Assay
The propensity for PXR mediated CYP3A4 induction is assessed using the DPX-2 cell line in vitro. This cell line, which has been licensed from Puracyp Inc. was derived from HepG2 cells and has been stably transfected with genes encoding human PXR as well as a modified luciferase reporter linked to the CYP3A4 promoter region and related distal and proximal enhancers.
The assay is run in 384 well format and each test article is administered in 11 doses ranging from 0.1 to 60 μM. On day 1, DPX-2 cells which have previously been expanded in-house and cryopreserved are thawed and seeded in tissue culture plates. The following day, media is changed and cells are cultured in media containing test article, vehicle control or the positive control compound, the clinically validated CYP3A4 inducer rifampicin. Cells are cultured in the presence of test article for 48 hours and then cell viability is assessed using fluorescence based assay (Cell Titer-Fluor, Promega) with an EnVision Plate Reader (PerkinElmer). Subsequently, CYP3A4 transactivation, which is proportional to luciferase activity, is measured by reading luminescense using the Promega One-Glo reagent system using the same plate reader.
Data processing within the Genedata software package allows reporting of max fold induction compared to vehicle control, an EC50 value for CYP3A4 inducers and an 11 point-dose response curve.

F508del-CFTR = molecular target: T2, F508del-CFTR (Homo sapiens, UniProt P13569, DEL508-508); assay: Membrane potential optical (FLIPR) assay for F508del-CFTR modulators in NIH 3T3 cells; assay type: cell-based; details: NIH 3T3 cells expressing F508del; assay A1; read-out: CFTRdF508 Cor 3T3 FLIPR 384 CFTRdF508 MP 3T3 770 EC50
T2 construct: expressed in transfected cells
T2 sequence (P13569 with tags, fused parts or gaps DEL508-508): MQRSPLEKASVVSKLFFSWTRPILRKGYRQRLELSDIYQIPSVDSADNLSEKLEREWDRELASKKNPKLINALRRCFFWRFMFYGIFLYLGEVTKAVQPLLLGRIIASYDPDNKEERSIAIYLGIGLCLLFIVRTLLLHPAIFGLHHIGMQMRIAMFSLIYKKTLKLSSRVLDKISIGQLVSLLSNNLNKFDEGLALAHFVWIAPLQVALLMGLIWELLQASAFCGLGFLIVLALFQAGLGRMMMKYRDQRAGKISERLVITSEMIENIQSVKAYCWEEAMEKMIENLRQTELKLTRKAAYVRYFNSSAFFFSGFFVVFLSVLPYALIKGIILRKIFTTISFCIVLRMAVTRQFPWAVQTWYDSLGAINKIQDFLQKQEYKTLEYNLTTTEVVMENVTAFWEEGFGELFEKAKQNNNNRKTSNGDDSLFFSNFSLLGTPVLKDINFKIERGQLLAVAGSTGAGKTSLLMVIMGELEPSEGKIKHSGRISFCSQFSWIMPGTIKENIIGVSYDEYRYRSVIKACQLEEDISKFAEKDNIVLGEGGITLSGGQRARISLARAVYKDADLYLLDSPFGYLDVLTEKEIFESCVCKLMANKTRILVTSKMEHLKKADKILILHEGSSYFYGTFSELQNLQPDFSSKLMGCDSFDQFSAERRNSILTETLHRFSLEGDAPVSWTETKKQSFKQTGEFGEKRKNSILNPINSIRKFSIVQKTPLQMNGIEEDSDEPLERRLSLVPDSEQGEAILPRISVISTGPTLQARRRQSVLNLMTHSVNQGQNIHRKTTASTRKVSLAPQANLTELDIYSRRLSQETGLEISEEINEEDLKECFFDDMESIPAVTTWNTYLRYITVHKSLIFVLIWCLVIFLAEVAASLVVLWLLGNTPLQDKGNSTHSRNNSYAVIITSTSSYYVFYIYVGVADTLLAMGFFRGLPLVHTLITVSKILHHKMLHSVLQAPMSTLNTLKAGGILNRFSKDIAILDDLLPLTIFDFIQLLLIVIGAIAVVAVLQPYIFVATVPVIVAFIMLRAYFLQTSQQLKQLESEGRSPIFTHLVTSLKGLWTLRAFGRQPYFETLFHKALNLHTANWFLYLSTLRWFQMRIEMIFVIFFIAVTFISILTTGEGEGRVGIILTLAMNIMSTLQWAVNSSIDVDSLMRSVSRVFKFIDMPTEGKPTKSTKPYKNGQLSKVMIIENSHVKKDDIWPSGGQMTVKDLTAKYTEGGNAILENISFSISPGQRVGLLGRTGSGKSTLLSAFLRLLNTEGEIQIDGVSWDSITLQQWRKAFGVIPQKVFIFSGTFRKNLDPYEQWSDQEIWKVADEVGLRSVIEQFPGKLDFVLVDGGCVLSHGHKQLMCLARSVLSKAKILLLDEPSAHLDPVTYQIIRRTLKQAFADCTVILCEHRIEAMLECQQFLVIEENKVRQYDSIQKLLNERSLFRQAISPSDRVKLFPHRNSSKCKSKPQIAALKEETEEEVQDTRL
Source text: Membrane Potential Optical Methods for Assaying Properties of F508del-CFTR Modulators
The assay utilizes fluorescent voltage sensing dyes to measure changes in membrane potential using a fluorescent plate reader (e.g., FLIPR III, Molecular Devices, Inc.) as a readout for increase in functional F508del in NIH 3T3 cells. The driving force for the response is the creation of a chloride ion gradient in conjunction with channel activation and concurrent with compound treatment by a single liquid addition step after the cells have previously been loaded with a voltage sensing dye.
A1. Identification of F508del-CFTR Modulators
To identify modulators of F508del, a fluorescence based HTS assay format was developed. This HTS assay utilizes fluorescent voltage sensing dyes to measure changes in membrane potential on the FLIPR III as a measurement for increase in gating (conductance) of F508del NIH 3T3 cells. The driving force for the response is the creation of a chloride ion gradient in conjunction with channel activation and concurrent with compound treatment by a single liquid addition step after the cells have previously been loaded with a voltage sensing dye.
Bath Solution #1: (in mM) NaCl 160, KCl 4.5, CaCl2 2, MgCl2 1, HEPES 10, pH 7.4 with NaOH, Glucose 10.
Chloride-free bath solution: Chloride salts in Bath Solution #1 (above) are substituted with gluconate salts.
NIH3T3 mouse fibroblasts stably expressing F508del were used for optical measurements of membrane potential. The cells were maintained at 37° C. in 5% CO2 and 90% humidity in Dulbecco's modified Eagle's medium supplemented with 2 mM glutamine, 10% fetal bovine serum, 1×NEAA, β-ME, 1× pen/strep, and 25 mM HEPES in 175 cm^2 culture flasks. For all optical assays, the cells were seeded at 12,000 cells/well in 384-well matrigel-coated plates and cultured for 18-24 hrs at 37° C. for the potentiator assay. For the correction assay, the cells were cultured at 37° C. with and without compounds for 18-24 hours.

| CYP3A4 Induction-PXR human PXR internal Max % Activity (human PXR) | pEC50 (F508del-CFTR) | Compound |
| --- | --- | --- |
| 13% | 7.10 | Cc1nn(C)cc1S(=O)(=O)NC(=O)c1ccc(-n2ccc(OCC3(C(F)(F)F)CC3)n2)nc1N1CC(C(C)(C)C)CC1(C)C (racemic) [Compound 40, 2-(4-tert-Butyl-2,2-dimethyl-pyrrolidin-1-yl)-N-(1,3-dimethylpyrazol-4-yl)sulfonyl-6-[3-[[1-(trifluoromethyl)cyclopropyl]methoxy]pyrazol-1-yl]pyridine-3-carboxamide] |
| 4% | 6.92 | Cc1nn(C)cc1S(=O)(=O)NC(=O)c1ccc(-n2ccc(OCC3(C(F)(F)F)CC3)n2)nc1N1CC(C(C)C)CC1(C)C (racemic) [Compound 41, N-(1,3-dimethylpyrazol-4-yl)sulfonyl-2-(4-isopropyl-2,2-dimethyl-pyrrolidin-1-yl)-6-[3-[[1-(trifluoromethyl)cyclopropyl]methoxy]pyrazol-1-yl]pyridine-3-carboxamide] |
|  | 6.41 | Cc1nn(C)cc1S(=O)(=O)NC(=O)c1ccc(-n2ccc(OCC3(C(F)(F)F)CC3)n2)nc1N1C[C@@H](C(C)C)CC1(C)C (single isomer, unassigned) [Compound 46, N-(1,3-dimethylpyrazol-4-yl)sulfonyl-2-(4-isopropyl-2,2-dimethyl-pyrrolidin-1-yl)-6-[3-[[1-(trifluoromethyl)cyclopropyl]methoxy]pyrazol-1-yl]pyridine-3-carboxamide] |
|  | 7.22 | Cc1nn(C)cc1S(=O)(=O)NC(=O)c1ccc(-n2ccc(OCC3(C(F)(F)F)CC3)n2)nc1N1C[C@@H](C(C)C)CC1(C)C (single isomer, unassigned) [Compound 47, N-(1,3-dimethylpyrazol-4-yl)sulfonyl-2-(4-isopropyl-2,2-dimethyl-pyrrolidin-1-yl)-6-[3-[[1-(trifluoromethyl)cyclopropyl]methoxy]pyrazol-1-yl]pyridine-3-carboxamide] |
| 7% | 6.41 | Cc1nn(C)cc1S(=O)(=O)NC(=O)c1ccc(-n2ccc(OCC3(C(F)(F)F)CC3)n2)nc1N1CC(C(C)(C)C)CC1(C)C (single isomer, unassigned) [Compound 53, 2-(4-tert-butyl-2,2-dimethyl-pyrrolidin-1-yl)-N-(1,3-dimethylpyrazol-4-yl)sulfonyl-6-[3-[[1-(trifluoromethyl)cyclopropyl]methoxy]pyrazol-1-yl]pyridine-3-carboxamide] |
|  | 5.68 | C[C@@H]1CN(c2nc(-n3ccc(OC4CC4)n3)ccc2C(=O)NS(=O)(=O)c2cnn(C)c2)C(C)(C)C1 [Compound 22, 6-[3-(Cyclopropoxy)pyrazol-1-yl]-N-(1-methylpyrazol-4-yl)sulfonyl-2-[(4S)-2,2,4-trimethylpyrrolidin-1-yl]pyridine-3-carboxamide] |
| 6% | 6.15 | Cc1c(S(=O)(=O)NC(=O)c2ccc(-n3ccc(OCC4(C)CC4(F)F)n3)nc2N2C[C@@H](C)CC2(C)C)cnn1C (stereo partly drawn) [Compound 24, 6-[3-[(2,2-Difluoro-1-methyl-cyclopropyl)methoxy]pyrazol-1-yl]-N-(1,5-dimethylpyrazol-4-yl)sulfonyl-2-[(4S)-2,2,4-trimethylpyrrolidin-1-yl]pyridine-3-carboxamide] |
|  | 6.96 | [2H]C([2H])([2H])[C@@H]1CN(c2nc(-n3ccc(OCC(C)(C)C(F)(F)F)n3)ccc2C(=O)NS(=O)(=O)c2cn(C)nc2C)C(C)(C)C1([2H])[2H] [Compound 29, (S)—N-((1,3-dimethyl-1H-pyrazol-4-yl)sulfonyl)-2-(2,2-dimethyl-4-(methyl-d3)pyrrolidin-1-yl-3,3-d2)-6-(3-(3,3,3-trifluoro-2,2-dimethylpropoxy)-1H-pyrazol-1-yl)nicotinamide] |
| 5% | 6.43 | Cc1c(S(=O)(=O)NC(=O)c2ccc(-n3ccc(OCC(C4CC4)C4CC4)n3)nc2N2C[C@@H](C)CC2(C)C)cnn1C [Compound 33, 6-[3-(2,2-dicyclopropylethoxy)pyrazol-1-yl]-N-(1,5-dimethylpyrazol-4-yl)sulfonyl-2-[(4S)-2,2,4-trimethylpyrrolidin-1-yl]pyridine-3-carboxamide] |
| 16% | 6.21 | Cc1nn(C)cc1S(=O)(=O)NC(=O)c1ccc(-n2ccc(OCC3(C(F)(F)F)CC3)n2)nc1N1CC(C)CC1(C)C (centres unmarked) [Compound 42, N-(1,3-dimethylpyrazol-4-yl)sulfonyl-6-[3-[[1-(trifluoromethyl)cyclopropyl]methoxy]pyrazol-1-yl]-2-(2,2,4-trimethylpyrrolidin-1-yl)pyridine-3-carboxamide] |
|  | 6.41 | Cc1nn(C)cc1S(=O)(=O)NC(=O)c1ccc(-n2ccc(OCC3(C(F)(F)F)CC3)n2)nc1N1CC(C)CC12CC2 (centres unmarked) [Compound 44, N-(1,3-dimethylpyrazol-4-yl)sulfonyl-2-(6-methyl-4-azaspiro[2.4]heptan-4-yl)-6-[3-[[1-(trifluoromethyl)cyclopropyl]methoxy]pyrazol-1-yl]pyridine-3-carboxamide] |
|  | 6.72 | CCC1CN(c2nc(-n3ccc(OCC4(C(F)(F)F)CC4)n3)ccc2C(=O)NS(=O)(=O)c2cn(C)nc2C)C(C)(C)C1 (centres unmarked) [Compound 49, N-(1,3-dimethylpyrazol-4-yl)sulfonyl-2-(4-ethyl-2,2-dimethyl-pyrrolidin-1-yl)-6-[3-[[1-(trifluoromethyl)cyclopropyl]methoxy]pyrazol-1-yl]pyridine-3-carboxamide] |
| 9% | 7.00 | C[C@@H]1CN(c2nc(-n3ccc(OCCC4(C(F)(F)F)CC4)n3)ccc2C(=O)NS(=O)(=O)c2cn(C)nc2C(F)(F)F)C(C)(C)C1 [Compound 55, N-[1-methyl-3-(trifluoromethyl)pyrazol-4-yl]sulfonyl-6-[3-[2-[1-(trifluoromethyl)cyclopropyl]ethoxy]pyrazol-1-yl]-2-[(4S)-2,2,4-trimethylpyrrolidin-1-yl]pyridine-3-carboxamide] |
| 11% |  | Cc1nn(C)cc1S(=O)(=O)NC(=O)c1ccc(-n2ccc(OCCC3C4(CC4)C34CC4)n2)nc1N1C[C@@H](C)CC1(C)C [Compound 56, N-(1,3-Dimethylpyrazol-4-yl)sulfonyl-6-[3-(2-dispiro[2.0.2.1]heptan-7-ylethoxy)pyrazol-1-yl]-2-[(4S)-2,2,4-trimethylpyrrolidin-1-yl]pyridine-3-carboxamide] |

| Compound | CYP3A4 Induction-PXR human PXR internal Max % Activity (human PXR) | pEC50 (F508del-CFTR) |
| --- | --- | --- |
| Cc1nn(C)cc1S(=O)(=O)NC(=O)c1ccc(-n2ccc(OCC3(C(F)(F)F)CC3)n2)nc1N1CC(C)CC12CCC2 (centres unmarked) [Compound 43, N-(1,3-dimethylpyrazol-4-yl)sulfonyl-2-(7-methyl-5-azaspiro[3.4]octan-5-yl)-6-[3-[[1-(trifluoromethyl)cyclopropyl]methoxy]pyrazol-1-yl]pyridine-3-carboxamide] | 4% | 6.66 |
